Assay results reported in PubChem BioAssay (NCI).
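Five compound concentrations were applied to cells in 96-well plates for 48 hours; endpoints were derived by simple linear interpolation of the resulting dose-response curve. TGI denotes the concentration required for complete inhibition of growth.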

Columns and labels:
Test in all cases: NCI anticancer screen, dose series, 48 h
SNB-75 CNS = system: SNB-75 CNS
SW-620 colon = system: SW-620 colon
HCT-15 colon = system: HCT-15 colon
UACC-257 melanoma = system: UACC-257 melanoma
CAKI-1 renal = system: CAKI-1 renal
SNB-19 CNS = system: SNB-19 CNS
OVCAR-4 ovarian = system: OVCAR-4 ovarian
NCI-H23 lung = system: NCI-H23 lung
KM12 colon = system: KM12 colon
NCI-H460 lung = system: NCI-H460 lung
M14 melanoma = system: M14 melanoma
COLO 205 colon = system: COLO 205 colon
BT-549 breast = system: BT-549 breast
SK-MEL-5 melanoma = system: SK-MEL-5 melanoma
NCI/ADR-RES ovarian = system: NCI/ADR-RES ovarian
EKVX NSCLC = system: EKVX NSCLC
SK-MEL-28 melanoma = system: SK-MEL-28 melanoma
LOX IMVI melanoma = system: LOX IMVI melanoma
MDA-MB-231 breast = system: MDA-MB-231 breast
T-47D breast = system: T-47D breast
SF-539 CNS = system: SF-539 CNS
HOP-62 NSCLC = system: HOP-62 NSCLC
786-0 renal = system: 786-0 renal
HL-60(TB) leukemia = system: HL-60(TB) leukemia
SK-OV-3 ovarian = system: SK-OV-3 ovarian
OVCAR-8 ovarian = system: OVCAR-8 ovarian
MDA-N = system: MDA-N
TK-10 renal = system: TK-10 renal
DU-145 prostate = system: DU-145 prostate
MDA-MB-435 = system: MDA-MB-435
HOP-92 NSCLC = system: HOP-92 NSCLC
HT29 colon = system: HT29 colon
OVCAR-3 ovarian = system: OVCAR-3 ovarian
U251 CNS = system: U251 CNS
A498 renal = system: A498 renal
HCT-116 colon = system: HCT-116 colon
HCC-2998 colon = system: HCC-2998 colon
IGROV1 ovarian = system: IGROV1 ovarian
SK-MEL-2 melanoma = system: SK-MEL-2 melanoma
MCF7 breast = system: MCF7 breast
A549 NSCLC = system: A549 NSCLC
SN12C renal = system: SN12C renal
SF-295 CNS = system: SF-295 CNS
NCI-H226 lung = system: NCI-H226 lung
OVCAR-5 ovarian = system: OVCAR-5 ovarian
UACC-62 melanoma = system: UACC-62 melanoma
UO-31 renal = system: UO-31 renal
RXF 393 renal = system: RXF 393 renal
ACHN renal = system: ACHN renal
SF-268 CNS = system: SF-268 CNS
PC-3 prostate = system: PC-3 prostate
SR leukemia = system: SR leukemia
CCRF-CEM leukemia = system: CCRF-CEM leukemia
NCI-H522 lung = system: NCI-H522 lung
MALME-3M melanoma = system: MALME-3M melanoma
K-562 leukemia = system: K-562 leukemia
MOLT-4 leukemia = system: MOLT-4 leukemia

CC(=O)/C(=C/n1ccc(=O)[nH]c1=S)C(=O)Nc1ccccc1C
TGI (SNB-75 CNS): > 100 µM
TGI (SW-620 colon): > 100 µM
TGI (HCT-15 colon): > 100 µM
TGI (UACC-257 melanoma): > 100 µM
TGI (CAKI-1 renal): > 100 µM
TGI (SNB-19 CNS): > 100 µM
TGI (OVCAR-4 ovarian): > 100 µM
TGI (NCI-H23 lung): > 100 µM
TGI (KM12 colon): > 100 µM
TGI (NCI-H460 lung): > 100 µM
TGI (M14 melanoma): > 100 µM
TGI (COLO 205 colon): > 100 µM
TGI (BT-549 breast): > 100 µM
TGI (SK-MEL-5 melanoma): > 100 µM
TGI (NCI/ADR-RES ovarian): > 100 µM
TGI (EKVX NSCLC): > 100 µM
TGI (SK-MEL-28 melanoma): > 100 µM
TGI (LOX IMVI melanoma): > 100 µM
TGI (MDA-MB-231 breast): > 100 µM
TGI (T-47D breast): > 100 µM
TGI (SF-539 CNS): > 100 µM
TGI (HOP-62 NSCLC): > 100 µM
TGI (786-0 renal): > 100 µM
TGI (HL-60(TB) leukemia): > 100 µM
TGI (SK-OV-3 ovarian): > 100 µM
TGI (OVCAR-8 ovarian): > 100 µM
TGI (MDA-N): > 100 µM
TGI (TK-10 renal): > 100 µM
TGI (DU-145 prostate): > 100 µM
TGI (MDA-MB-435): > 100 µM
TGI (HOP-92 NSCLC): > 100 µM
TGI (HT29 colon): > 100 µM
TGI (OVCAR-3 ovarian): > 100 µM
TGI (U251 CNS): > 100 µM
TGI (A498 renal): > 100 µM
TGI (HCT-116 colon): > 100 µM
TGI (HCC-2998 colon): > 100 µM
TGI (IGROV1 ovarian): > 100 µM
TGI (SK-MEL-2 melanoma): > 100 µM
TGI (MCF7 breast): > 100 µM
TGI (A549 NSCLC): > 100 µM
TGI (SN12C renal): > 100 µM
TGI (SF-295 CNS): > 100 µM
TGI (NCI-H226 lung): > 100 µM
TGI (OVCAR-5 ovarian): > 100 µM
TGI (UACC-62 melanoma): > 100 µM
TGI (UO-31 renal): > 100 µM
TGI (RXF 393 renal): > 100 µM
TGI (ACHN renal): > 100 µM
TGI (SF-268 CNS): > 100 µM

NC(=S)C1=C(N)Oc2c(c(=O)oc3ccccc23)C1c1ccc(Br)cc1 (configuration not stated)
TGI (SNB-75 CNS): > 100 µM
TGI (SW-620 colon): > 100 µM
TGI (HCT-15 colon): > 100 µM
TGI (UACC-257 melanoma): > 100 µM
TGI (CAKI-1 renal): > 100 µM
TGI (SNB-19 CNS): > 100 µM
TGI (OVCAR-4 ovarian): > 100 µM
TGI (NCI-H23 lung): > 100 µM
TGI (NCI-H460 lung): > 100 µM
TGI (M14 melanoma): > 100 µM
TGI (COLO 205 colon): > 100 µM
TGI (PC-3 prostate): > 100 µM
TGI (BT-549 breast): > 100 µM
TGI (SK-MEL-5 melanoma): > 100 µM
TGI (NCI/ADR-RES ovarian): > 100 µM
TGI (EKVX NSCLC): > 100 µM
TGI (SK-MEL-28 melanoma): > 100 µM
TGI (SR leukemia): 63.2 µM
TGI (CCRF-CEM leukemia): > 100 µM
TGI (LOX IMVI melanoma): > 100 µM
TGI (MDA-MB-231 breast): > 100 µM
TGI (NCI-H522 lung): > 100 µM
TGI (SF-539 CNS): > 100 µM
TGI (HOP-62 NSCLC): > 100 µM
TGI (MALME-3M melanoma): > 100 µM
TGI (786-0 renal): > 100 µM
TGI (HL-60(TB) leukemia): > 100 µM
TGI (SK-OV-3 ovarian): > 100 µM
TGI (OVCAR-8 ovarian): > 100 µM
TGI (MDA-N): > 100 µM
TGI (TK-10 renal): > 100 µM
TGI (DU-145 prostate): > 100 µM
TGI (MDA-MB-435): > 100 µM
TGI (HOP-92 NSCLC): > 100 µM
TGI (HT29 colon): > 100 µM
TGI (OVCAR-3 ovarian): > 100 µM
TGI (U251 CNS): > 100 µM
TGI (A498 renal): > 100 µM
TGI (HCT-116 colon): > 100 µM
TGI (HCC-2998 colon): > 100 µM
TGI (K-562 leukemia): > 100 µM
TGI (IGROV1 ovarian): > 100 µM
TGI (SK-MEL-2 melanoma): > 100 µM
TGI (MCF7 breast): > 100 µM
TGI (A549 NSCLC): > 100 µM
TGI (SN12C renal): > 100 µM
TGI (SF-295 CNS): > 100 µM
TGI (OVCAR-5 ovarian): > 100 µM
TGI (UACC-62 melanoma): > 100 µM
TGI (UO-31 renal): > 100 µM
TGI (ACHN renal): > 100 µM
TGI (SF-268 CNS): > 100 µM

C(CCCCc1nnc(N2CCOCC2)o1)CCCc1nnc(N2CCOCC2)o1
TGI (SNB-75 CNS): > 100 µM
TGI (SW-620 colon): > 100 µM
TGI (HCT-15 colon): > 100 µM
TGI (UACC-257 melanoma): > 100 µM
TGI (CAKI-1 renal): > 100 µM
TGI (SNB-19 CNS): > 100 µM
TGI (OVCAR-4 ovarian): > 100 µM
TGI (NCI-H23 lung): > 100 µM
TGI (KM12 colon): > 100 µM
TGI (NCI-H460 lung): > 100 µM
TGI (M14 melanoma): > 100 µM
TGI (COLO 205 colon): > 100 µM
TGI (PC-3 prostate): > 100 µM
TGI (BT-549 breast): > 100 µM
TGI (SK-MEL-5 melanoma): > 100 µM
TGI (NCI/ADR-RES ovarian): > 100 µM
TGI (EKVX NSCLC): > 100 µM
TGI (SK-MEL-28 melanoma): > 100 µM
TGI (CCRF-CEM leukemia): > 100 µM
TGI (LOX IMVI melanoma): > 100 µM
TGI (MOLT-4 leukemia): > 100 µM
TGI (MDA-MB-231 breast): > 100 µM
TGI (SF-539 CNS): > 100 µM
TGI (HOP-62 NSCLC): > 100 µM
TGI (786-0 renal): > 100 µM
TGI (HL-60(TB) leukemia): > 100 µM
TGI (SK-OV-3 ovarian): > 100 µM
TGI (OVCAR-8 ovarian): > 100 µM
TGI (MDA-N): > 100 µM
TGI (TK-10 renal): > 100 µM
TGI (DU-145 prostate): > 100 µM
TGI (MDA-MB-435): > 100 µM
TGI (HOP-92 NSCLC): > 100 µM
TGI (HT29 colon): > 100 µM
TGI (OVCAR-3 ovarian): > 100 µM
TGI (U251 CNS): > 100 µM
TGI (A498 renal): > 100 µM
TGI (HCT-116 colon): > 100 µM
TGI (K-562 leukemia): > 100 µM
TGI (IGROV1 ovarian): > 100 µM
TGI (SK-MEL-2 melanoma): > 100 µM
TGI (MCF7 breast): > 100 µM
TGI (A549 NSCLC): > 100 µM
TGI (SN12C renal): > 100 µM
TGI (SF-295 CNS): > 100 µM
TGI (NCI-H226 lung): > 100 µM
TGI (OVCAR-5 ovarian): > 100 µM
TGI (UO-31 renal): > 100 µM
TGI (RXF 393 renal): > 100 µM
TGI (ACHN renal): > 100 µM
